Read-outs that look alike come from different tables or passages of the source.
What was measured:
CML [1] = conditions: cited from earlier work
[2] = reason for not being suitable for in vivo use [18]; cited from earlier work
MYC/Max = MYC/Max (Homo sapiens, UniProt P01106); conditions: cited from earlier work
AML cells = conditions: cited from earlier work
NCI-60 cancer cell lines = assay: CellMiner gene expression correlated with growth inhibition (%) at 10 μM (mean of NCI 1-dose and 5-dose protocols); format: cell-based, human
Text: Correlations first found using NCI COMPARE, with the aforementioned method, were then further corroborated using cancer gene expression data sourced from the CellMiner database. Indeed, the following NCI 1-dose and 5-dose anti-cancer data for almitrine dimesylate, with serial codes given that will be used to refer to each hereafter, was compared with cancer gene expression data sourced from CellMiner:
The CellMiner database includes five independent Human Genome gene expression data sets {accession numbers: GSE5949, GSE5720, GSE32474, GSE29682, GSE29288}, each of which can have multiple different transcript sequence probes for a single gene, wherein the mean expression for each gene was taken: within and across the different databases, which is distinct from NCI COMPARE where all expressions of different sequence transcripts for a gene were kept distinct without any averaging, and where there was no averaging across gene expression data sets, each was kept distinct. Although actually only four of these gene expression data sets in CellMiner were used to generate the mean for each gene expression: the single gene expression data set that used an Agilent instead of an Affymetrix microarray chip (GSE29288) was excluded from the mean because, to quote the CellMiner documentation: “Agilent probe(s) values are removed from cell line average intensity calculation due to normalization inconsistency with Affymetrix probesets”. […] So, the data set sourced from an Agilent microarray chip was not incorporated in the mean, but was instead used by itself separately for an independent verification. With much less data, the Agilent set is much less reliable than the mean of the 4 Affymetrix microarray data sets, but it is a nice independent adjudicator. This Agilent data set is not one of the six gene expression data sets at NCI COMPARE. By contrast, there is some overlap in the 4 CellMiner gene expression databases that were used for the mean and the 6 that were used with NCI COMPARE (some might be the same). […] Also, distinctly with the 4 Affymetrix microarray data sets in CellMiner, the mean expression for each gene was taken: averaging the expression of all the different sequence transcripts, across all the 4 used Affymetrix microarray data sets, for each gene. Moreover, this mean is very heavily weighted to a database that CellMiner has, and NCI COMPARE definitely doesn't, Accession number: GSE29682, because it tends to have many more probes for each gene than any other data set, indeed often more than all the others combined, each of which is an additional data point in the mean for each gene. […]

NCI-60 = NCI-60 testing; comparators e.g. carboplatin; reported in previous applications WO2019/012149A1; cited from earlier work
[3] = cited from earlier work
[4] = intravenous 459±155 mg almitrine dimesylate infused within 24 hours [16], cited from earlier work
CML [5] = assay: Anti-CML activity; format: cell-based; conditions: almitrine (or salt, solvate, hydrate, prodrug) and imatinib/dasatinib/nilotinib/radotinib/bosutinib/ponatinib; anticipated by the teaching of this disclosure

Chain of MYC/Max (P01106 whole entry): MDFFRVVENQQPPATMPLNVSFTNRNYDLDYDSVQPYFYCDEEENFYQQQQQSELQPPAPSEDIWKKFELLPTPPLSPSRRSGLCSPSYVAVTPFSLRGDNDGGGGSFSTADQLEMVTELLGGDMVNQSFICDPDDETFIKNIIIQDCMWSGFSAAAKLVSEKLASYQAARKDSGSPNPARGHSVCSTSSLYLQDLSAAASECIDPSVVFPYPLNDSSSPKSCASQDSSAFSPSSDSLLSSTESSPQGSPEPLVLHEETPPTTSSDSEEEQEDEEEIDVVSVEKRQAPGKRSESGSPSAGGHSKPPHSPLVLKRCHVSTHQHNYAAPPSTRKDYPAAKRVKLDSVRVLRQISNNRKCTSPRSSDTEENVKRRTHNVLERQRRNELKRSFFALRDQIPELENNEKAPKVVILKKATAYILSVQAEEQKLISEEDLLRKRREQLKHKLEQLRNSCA

## CCc1ccc(/C=C2/SC(=S)NC2=O)cc1 [10058-F4]
CML [1]; 10058-F4 and imatinib [26]
  Anti-cancer activity in combination: synergistic anti-cancer activity
CML [1]; [26]
  Anti-CML activity: exerts anti-CML activity
[2]
  Degradation: fast degradation
MYC/Max; [18]
  MYC/Max heterodimerization: does disrupt MYC/Max heterodimerization
MYC/Max; target MYC [18]
  Affinity for target: low affinity for target
AML cells; AML, Myc inhibition [39]
  Drug resistance of leukemic cells: can overcome drug resistance
AML cells; [42]
  Differentiation of AML cells: causes AML cells to differentiate
AML cells; at higher concentrations [42]
  Apoptosis of AML cells: induces their apoptosis

## C=CCNc1nc(NCC=C)nc(N2CCN(C(c3ccc(F)cc3)c3ccc(F)cc3)CC2)n1 [almitrine dimesylate]
NCI-60 cancer cell lines; SCAF11 gene expression minus RAPH1 gene expression, CellMiner data
  Anti-cancer activity vs SCAF11 minus RAPH1 gene expression (FIG. 1A bottom panel): greater against cancers with greater value of SCAF11 gene expression minus RAPH1 gene expression
NCI-60 cancer cell lines; gene MYC, CellMiner data
  Susceptibility to anti-cancer activity vs MYC oncogene expression (FIG. 1C): the more likely it is susceptible
NCI-60 cancer cell lines; gene RAPH1, CellMiner Affymetrix, Agilent and RNA-seq data
  Anti-cancer activity vs RAPH1 gene expression (FIG. 1A middle panel): less against cancers with greater gene expression of RAPH1
NCI-60 cancer cell lines; gene SCAF11, CellMiner Affymetrix, Agilent and RNA-seq data
  Anti-cancer activity vs SCAF11 gene expression (FIG. 1A upper panel): greater against cancers with greater gene expression of SCAF11
NCI-60
  Anti-cancer activity compared with present cancer drugs: greater anti-cancer activity than many present cancer drugs
[3]; humans
  Side-effects in humans compared with present cancer drugs: less, close to no, side-effects
[3]; if side-effects occur [2]
  Reversibility of side-effects: reversible upon stopping the course in nearly all cases
[3]; patients taking it daily for <11 months
  Side-effects: no side-effects in nearly every patient
[3]; patients taking it daily for >11 months to years [2]
  Side-effects: side-effects in a very small minority of the many patients
[4]; subjects with normal liver function
  Adverse effect: without any adverse effect
[4]; subjects with poor/impaired liver function
  Blood [lactate]: can potentially increase blood [lactate]

## C=CCNc1nc(NCC=C)nc(N2CCN(C(c3ccc(F)cc3)c3ccc(F)cc3)CC2)n1 [almitrine]
CML [5]
  Anti-CML activity in combination: synergistic anti-CML activity

Source: patent publication US20240392383A1, “Cancer biomarkers for susceptibility to treatment by almitrine” (priority 2021, published 2024)
